US5310665A (Gist-brocades, N.V., priority 1990, dated 1994)

Columns and labels:
[1] = molecular target: T1, Actinoplanes missouriensis glucose isomerase, wild type, SEQ ID NO: 1 (Actinoplanes missouriensis, UniProt P12851); assay: Steady-state kinetics of glucose isomerase (coupled sorbitol dehydrogenase assay for xylose; cysteine-carbazole or sorbitol dehydrogenase method for glucose); type: biochemical; details: 60° C., 10 mM Mg2+, pH 7.5
T1 construct: made in house; host or cells: E. coli K514
T1 sequence (P12851 2-394 limits assumed): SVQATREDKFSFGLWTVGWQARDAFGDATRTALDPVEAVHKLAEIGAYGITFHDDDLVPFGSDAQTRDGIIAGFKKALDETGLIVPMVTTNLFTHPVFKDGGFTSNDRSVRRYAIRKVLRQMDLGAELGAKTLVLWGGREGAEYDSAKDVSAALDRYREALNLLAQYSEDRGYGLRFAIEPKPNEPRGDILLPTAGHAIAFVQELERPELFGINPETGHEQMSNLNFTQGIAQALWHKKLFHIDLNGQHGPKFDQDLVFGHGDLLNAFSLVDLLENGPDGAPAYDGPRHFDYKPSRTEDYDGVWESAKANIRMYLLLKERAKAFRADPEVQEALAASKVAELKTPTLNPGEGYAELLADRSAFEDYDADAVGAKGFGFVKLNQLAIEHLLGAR

[2] = molecular target: T2, Actinoplanes missouriensis glucose isomerase variant H290N (Actinoplanes missouriensis, UniProt P12851, H290N); assay: Steady-state kinetics of glucose isomerase mutant; type: biochemical; details: 60° C., 10 mM Mg2+, pH 7.5
T2 construct: made in house; host or cells: E. coli K514
T2 sequence (P12851 2-394 H290N limits assumed): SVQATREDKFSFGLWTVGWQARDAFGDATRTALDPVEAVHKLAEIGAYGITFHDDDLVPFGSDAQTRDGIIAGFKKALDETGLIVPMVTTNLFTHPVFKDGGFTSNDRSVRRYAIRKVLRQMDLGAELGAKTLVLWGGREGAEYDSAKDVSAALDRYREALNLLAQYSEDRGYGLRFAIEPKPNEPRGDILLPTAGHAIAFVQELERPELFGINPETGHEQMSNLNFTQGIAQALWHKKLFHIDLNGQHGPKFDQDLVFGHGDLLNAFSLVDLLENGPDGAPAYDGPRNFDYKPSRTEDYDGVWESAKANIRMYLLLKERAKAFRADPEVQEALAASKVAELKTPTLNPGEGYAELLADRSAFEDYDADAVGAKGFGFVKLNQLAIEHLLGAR
Method: (§1) Alternatively, the D-fructose produced during the isomerization reaction can be determined enzymatically using sorbitol dehydrogenase and NADH.
(§2) As a measure of specificity the quotient is Vmax /Km is sometimes used (Wells et al., ibid). […] These temperatures are chosen for practical reasons.
(§3) Activities were measured on purified enzyme. The coupled sorbitol dehydrogenase assay was used for xylose, the cysteine-carbazole or discontinuous sorbitol dehydrogenase method was used for glucose.

[3] = molecular target: T3, Actinoplanes missouriensis glucose isomerase variant M88SH290N (M88S/H290N) (Actinoplanes missouriensis, UniProt P12851, H290N/M88S); assay: Steady-state kinetics of glucose isomerase mutant; type: biochemical; details: 60° C., 10 mM Mg2+, pH 7.5
T3 construct: made in house; host or cells: E. coli K514
T3 sequence (P12851 2-394 M88S/H290N limits assumed): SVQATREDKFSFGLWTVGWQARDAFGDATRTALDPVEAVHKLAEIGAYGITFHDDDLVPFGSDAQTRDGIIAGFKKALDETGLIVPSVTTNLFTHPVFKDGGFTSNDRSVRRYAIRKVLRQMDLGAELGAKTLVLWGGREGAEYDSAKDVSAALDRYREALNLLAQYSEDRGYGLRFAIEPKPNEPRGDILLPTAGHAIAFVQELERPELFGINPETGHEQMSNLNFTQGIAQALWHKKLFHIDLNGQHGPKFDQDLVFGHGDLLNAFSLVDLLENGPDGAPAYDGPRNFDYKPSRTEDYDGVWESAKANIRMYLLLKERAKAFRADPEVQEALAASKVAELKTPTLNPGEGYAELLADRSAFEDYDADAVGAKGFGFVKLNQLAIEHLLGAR
Method: as §1, §2, §3

[4] = system: naturally occurring glucose isomerases (various microorganisms); details: range over microorganisms; cited from earlier work

Structure (SMILES) | Vmax gl [1] [µmol/min/mg] | Vmax gl [2] [µmol/min/mg] | Vmax gl [3] [µmol/min/mg] | Km [4] [mM]
O=C[C@H](O)[C@@H](O)[C@H](O)[C@H](O)CO [glucose] | 34.800 | 41.800 | 49.770 | –
O=C[C@H](O)[C@@H](O)[C@H](O)CO [xylose] | – | – | – | 5 to 93
